Data taken from PubChem BioAssay AID1919002 (Molecular Pharmacology Branch, DTP, NCI, 2023).

Tested on: 743489-274-T-PDC complex spheroid growth
Test: Anticancer human tumor 743489-274-T-PDC patient-derived renal cell carcinoma cell line growth inhibition [AhR]
Settings: for IC50: curve of first compound; for viability, T/C: stronger effect = lower value
Description: Multicellular complex tumor spheroid response to aryl hydrocarbon receptor antagonists in combination with a variety of drugs and investigational agents in selected tumor cell lines
The current study was undertaken to assess response to aryl hydrocarbon receptor antagonists in combination with standard-of-care drugs and investigational agents in solid tumor complex spheroid models. Complex spheroids include a stromal component modeled by human endothelial cells (HUVEC) and fibroblasts modeled by human mesenchymal stem cells (MSCs). The concentration ranges selected for each drug and investigational agent were based upon clinically achievable concentrations if the clinical Cmax of the agent was known.
Compounds. The drugs and investigational agents: BAY 2416964 (NSC825713), GNF351 (NSC835774), CH-223191 (NSC835775), CPI-455 (NSC825282), aza-TdCyd (NSC777586), decitabine (NSC127716), belinostat (NSC758774), entinostat (NSC756642), pevonedistat (NSC761192), tazemetostat (NSC777109), talazoparib (NSC765396), olaparib (NSC753686), selinexor (NSC780203), nedisertib (M3814, NSC802822), bortezomib (NSC756655), venetoclax (NSC766270), doxorubicin (NSC123127), elimusertib (BAY189344, NSC800525), ceralasertib (AZD6738, NSC777638), TAK-243 (NSC785004), alisertib (NSC759677), etoposide (NSC141540), topotecan (NSC609699), eribulin (NSC707389), gemcitabine (NSC613327), carboplatin (NSC241240), cisplatin (NSC119875), and SN-38 (NSC673596) were obtained from the National Cancer Institute (NCI) Developmental Therapeutics Program Chemical Repository (32). The FDA-approved anticancer drug set is available from the Developmental Therapeutics Program at https://dtp.cancer.gov/organization/dscb/obtaining/available plates.htm. […] The stock solutions were prepared in dimethyl sulfoxide (DMSO, Sigma-Aldrich, St. Louis, MO, cat. D2650), except for the platinum compounds which were prepared in saline (Quality Biological, Gaithersburg, MD, cat. 114-055-101), at 800-fold the tested concentration and stored at -70 degrees C prior to their use. All drugs and investigational agents were tested over a range starting from a high concentration at or near the clinical Cmax and decreasing in half-log increments. If the clinical Cmax for an agent had not been determined, the highest concentration tested was 10 microM (Table 1).
Cell Culture. All cells were maintained in an incubator at 37 degrees C and 5% CO2 with 95% humidity. The PDC lines were cultured according to standard operating procedures established by the NCI PDMR (https://pdmr.cancer.gov). Briefly, all PDCs were thawed and cultured in Matrigel-coated flasks prepared with a working solution of 1X Ham's F-12 nutrient mix, without supplementation (Invitrogen, Waltham, MA, cat. 11765054), 100 U/mL penicillin-streptomycin (Invitrogen, cat. 15140122), and 2.5% Matrigel (Corning Inc., Corning, NY, cat. 354248) for the first three passages. All PDCs were cultured in complete DMEM/F-12 media containing advanced DMEM/F-12 (Invitrogen, cat. 12634028), 4.9% defined fetal bovine serum, heat inactivated (HyClone Laboratories Inc., Logan, UT, cat. SH30070.03HI), 389 ng/mL hydrocortisone (Sigma-Aldrich, cat. H4001), 9.7 ng/mL human EGF recombinant protein (Invitrogen, cat. PHG0313), 23.4 microg/mL adenine (Sigma-Aldrich, cat. A2786), 97.3 U/mL penicillin-streptomycin (Invitrogen, cat. 15140122), 1.9 mM L-glutamine (Invitrogen, cat. 25030081), and 9.7 microM Y-27632 dihydrochloride (Tocris Bioscience, Bristol, United Kingdom, cat. 1254). The PDCs were cultured in complete DMEM/F12 media without 10 microM Y-27632 dihydrochloride for at least two passages prior to the screen. The established cell lines NCI-H1341 and […] were cultured in DMEM/F-12, HEPES (Invitrogen, cat. 11330032), 5% defined fetal bovine serum (HyClone Laboratories Inc., cat. SH30070.03), ITS premix universal culture supplement [insulin (5 microg/mL), transferrin (5 microg/mL), and selenious acid (5 ng/mL)] […]

[1] = second compound 0.1 µM, first compound 0.0316 µM
[2] = second compound 0.1 µM, first compound 0.1 µM
[3] = second compound 0.1 µM, first compound 0.316 µM
[4] = second compound 0.1 µM, first compound 1 µM
[5] = second compound 0.1 µM, first compound 3.16 µM
[6] = second compound 0.1 µM, first compound 10 µM
[7] = second compound 0.316 µM, first compound 0.0316 µM
[8] = second compound 0.316 µM, first compound 0.1 µM
[9] = second compound 0.316 µM, first compound 0.316 µM
[10] = second compound 0.316 µM, first compound 1 µM
[11] = second compound 0.316 µM, first compound 3.16 µM
[12] = second compound 0.316 µM, first compound 10 µM
[13] = second compound 1 µM, first compound 0.0316 µM
[14] = second compound 1 µM, first compound 0.1 µM
[15] = second compound 1 µM, first compound 0.316 µM
[16] = second compound 1 µM, first compound 1 µM
[17] = second compound 1 µM, first compound 3.16 µM
[18] = second compound 1 µM, first compound 10 µM
[19] = second compound 3.16 µM, first compound 0.0316 µM
[20] = second compound 3.16 µM, first compound 0.1 µM
[21] = second compound 3.16 µM, first compound 0.316 µM
[22] = second compound 3.16 µM, first compound 1 µM
[23] = second compound 3.16 µM, first compound 3.16 µM
[24] = second compound 3.16 µM, first compound 10 µM
[25] = second compound 10 µM, first compound 0.0316 µM
[26] = second compound 10 µM, first compound 0.1 µM
[27] = second compound 10 µM, first compound 0.316 µM
[28] = second compound 10 µM, first compound 1 µM
[29] = second compound 10 µM, first compound 3.16 µM
[30] = second compound 10 µM, first compound 10 µM
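Further: spheroids exposed to agents for 7 days before readout.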
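Wherever viability, T/C is given: 100% = DMSO vehicle control wells.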

| Structure (SMILES) | IC50 (second compound 0.1 µM) [µM] | IC50 (second compound 0.316 µM) [µM] | IC50 (second compound 1 µM) [µM] | IC50 (second compound 3.16 µM) [µM] | IC50 (second compound 10 µM) [µM] | viability, T/C [1] [%] | viability, T/C [2] [%] | viability, T/C [3] [%] | viability, T/C [4] [%] | viability, T/C [5] [%] | viability, T/C [6] [%] | viability, T/C [7] [%] | viability, T/C [8] [%] | viability, T/C [9] [%] | viability, T/C [10] [%] | viability, T/C [11] [%] | viability, T/C [12] [%] | viability, T/C [13] [%] | viability, T/C [14] [%] | viability, T/C [15] [%] | other results |
| --- | --- | --- | --- | --- | --- | --- | --- | --- | --- | --- | --- | --- | --- | --- | --- | --- | --- | --- | --- | --- | --- |
| COc1cc(Nc2ncc3c(n2)-c2ccc(Cl)cc2C(c2c(F)cccc2OC)=NC3)ccc1C(=O)O + CC(CO)NC(=O)c1cc(-c2ccc(Cl)cc2)nn(-c2cnn(C)c2)c1=O | > 10 | > 10 | > 10 | > 10 | > 10 | 96.9 | 95.2 | 91.4 | 84.4 | 86.4 | 88.9 | 98.7 | 90.3 | 91.3 | 86.6 | 93.5 | 85.5 | 90.6 | 97.3 | 95.5 | viability, T/C [16]: 76.4%; viability, T/C [17]: 87.9%; viability, T/C [18]: 87.3%; viability, T/C [19]: 101%; viability, T/C [20]: 104%; viability, T/C [21]: 95.2%; viability, T/C [22]: 85.7%; viability, T/C [23]: 82%; viability, T/C [24]: 84.9%; viability, T/C [25]: 91.2%; viability, T/C [26]: 102%; viability, T/C [27]: 86.9%; viability, T/C [28]: 93.9%; viability, T/C [29]: 88.6%; viability, T/C [30]: 94.5% |
| NS(=O)(=O)OCC1CC(n2ccc3c(NC4CCc5ccccc54)ncnc32)CC1O (stereo not given) + CC(CO)NC(=O)c1cc(-c2ccc(Cl)cc2)nn(-c2cnn(C)c2)c1=O | > 10 | > 10 | > 10 | > 10 | > 10 | 89.3 | 89.7 | 101 | 123 | 149 | 155 | 86.1 | 82.3 | 85.7 | 119 | 148 | 156 | 82.3 | 96.7 | 99.2 | viability, T/C [16]: 116%; viability, T/C [17]: 141%; viability, T/C [18]: 143%; viability, T/C [19]: 91.1%; viability, T/C [20]: 86.1%; viability, T/C [21]: 99.2%; viability, T/C [22]: 109%; viability, T/C [23]: 132%; viability, T/C [24]: 136%; viability, T/C [25]: 89.5%; viability, T/C [26]: 96.1%; viability, T/C [27]: 84.8%; viability, T/C [28]: 112%; viability, T/C [29]: 119%; viability, T/C [30]: 129% |
